The record followed here is US20230056135A1, “MONOMER AND MULTIMERIC ANTI-HBV AGENTS” (priority 2018, published 2023).

Holding throughout (type): cell-based
Data set [1] concerns Vero. The data set can be described thus: Cellular toxicity assay in Vero cells. To be noted: Vero cells; read-out: Cytotoxicity; CC50 (μM) VERO. Summed up: (§1)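 Toxicity in cells was measured across a concentration range. Negative controls were untreated cells given solvent, while cycloheximide served as the cytotoxic reference. Values are IC50s by median-effect analysis.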
For data set [2], the system named is human PBM. The data set can be described thus: Cellular toxicity assay in human PBM cells. To be noted: human PBM cells; read-out: Cytotoxicity; CC50 (μM) PBM. Summed up: as §1
Data set [3] concerns HBV replication in HepAD38 cells. The data set can be described thus: Drug-drug combination, inhibition of HBV replication in HepAD38 cells.
In data set [4] the test system is HepG2 cells. Description: Cellular toxicity assay in HepG2 cells. Particulars: HepG2 cells; read-out: Cytotoxicity; CC50 (μM) HepG2. The method, boiled down: as §1
Data set [5] has as its system CEM (human lymphoblastoid). The data set can be described thus: Cellular toxicity assay in CEM cells. To be noted: CEM cells; read-out: Cytotoxicity; CC50 (μM) CEM. Summed up: as §1
The subject of data set [6] is wild type HBV. The data set can be described thus: Anti-HBV assay in AD-38 cell line (HBV in culture supernatant). Particulars: AD-38 cell line, Tet (-); for EC50: read-out: Anti-HBV activity EC50.
The subject of data set [7] is Glutathione levels (GSH). The data set can be described thus: Glutathione levels in Huh7 cells (GSH-Glo Glutathione Assay). On the procedure: Glutathione levels (GSH) were measured in Huh7 cells after 22 h treatment with 10 μM CAMs (GSH-Glo™ Glutathione Assay—Promega). Treatment of Huh7 with 10 μM positive control, L-buthionine-sulfoximine, reduced cellular GSH levels by 58% (data not shown); Samples were tested in triplicates.

Data set [8] is described as follows: Cytotoxicity (rDNA) in HepG2-NTCP infectious system. To be noted: human, HepG2-NTCP (Clone 7) cells infected with HBV, day 11, read-out: HBV DNA/rDNA CC50. On the procedure:
(§2) Antiviral Activity in HepG2-NTCP Infectious System: HepG2-NTCP (Clone 7) cells were pretreated with antivirals for 30 min prior infection for 24 h with stock concentrated virus produced from HepAD38 at a dose of ˜300 virus genome equivalent (VGE) per cell in the presence of media containing 4% polyethylene glycol 8000 (PEG) and 2% DMSO. After 24 h, virus inoculum with or without antiviral agents were washed out from cells and media in the presence of 4% PEG and 2% DMSO, with or without antiviral agents were replenished every two days until day 11. Cells and supernatants were harvested and tested for intracellular HBV DNA, pregenomic (pg) RNA, surface RNA, and secreted HBeAg (ELISA).

Data set [9] is described as follows: Cellular toxicity assay in human PBM cells. Particulars: human, human PBM cells; read-out: Cytotoxicity; CC50 (μM) PBM. Summed up:
as §1

Data set [10] is described as follows: Cellular toxicity assay in HepG2 cells. Particulars: human, HepG2 cells; read-out: Cytotoxicity; CC50 (μM) HepG2. Summed up: as §1
The test system of data set [11] is HBV. Description: Antiviral activity in HepG2-NTCP infectious system. Particulars: Hepatitis B virus, 264 h. How it is done: as §2
The mark [12] stands for this setting: read-out: HBV DNA/rDNA EC50 (nM).
The mark [13] stands for this setting: read-out: HBV RNA EC50, nM pgRNA.
Setting [14] is: read-out: HBV RNA EC50, nM sRNA.

Where two headings read alike, the source gives them in different places. Where only a bound is given, the exact number is not on record here.

What is called EC90 is the point of the concentration-response curve where the effect stands at 90%. By inhibition is commonly meant the relative decrease from the control value, in per cent.

On to `Cc1c(C(=O)C(=O)NCc2cn(CCCCCCCCCCCCn3cc(CNC(=O)C(=O)c4c(C)c(C(=O)Nc5ccc(F)c(F)c5)n(C)c4C)nn3)nn2)c(C)n(C)c1C(=O)Nc1ccc(F)c(F)c1` [Compound 53, 4,4′-(2,2′-(((Dodecane-1,12-diylbis(1H-1,2,3-triazole-1,4-diyl))bis(methylene))bis(azanediyl))bis(2-oxoacetyl))bis(N-(3,4-difluorophenyl)-1,3,5-trimethyl-1H-pyrrole-2-carboxamide)], for which the CC50 was > 100 µM in data set [1], 35 µM in data set [2], > 100 µM in data set [4] and 45 µM in data set [5]. Moreover, the EC50 in data set [3] (HepAD38 cells, combinations at ratio 1:1, read-out: EC50) is 0.02 nM; in data set [6] it was 0.1 to 1 nM. Also, the EC90 in [3] (HepAD38 cells, combinations at ratio 1:1, read-out: EC90) is 5.29 nM; in data set [6] (read-out: Anti-HBV activity EC90), 10 to 100 nM.
As for `C#CCNC(=O)C(=O)c1c(C)c(C(=O)Nc2ccc(F)c(F)c2)n(CC#C)c1C` [Compound 114, N-(3,4-Difluorophenyl)-3,5-dimethyl-4-(2-oxo-2-(prop-2-yn-1-ylamino)acetyl)-1-(prop-2-yn-1-yl)-1H-pyrrole-2-carboxamide], the “GSH levels relative to untreated control” value in data set [7] (22 h treatment) was > 10 µM. In addition, in data set [7] (Homo sapiens, Huh-7, read-out: GSH levels relative to untreated control (% inhibition at 10 μM), 22 h, 10 μM), the inhibition at 10 µM was found to be 27%. Besides, the CC50 at 11 days in [8] was > 1000 nM. Besides, the CC50 in data set [9] and in data set [10] was > 100 µM throughout. The EC50 is 0.1 to 1 nM in data set [6] (Hepatitis B virus); 0.6 nM in data set [11] (setting [12]); 79.6 nM in [11] (setting [13]); 67.8 nM in data set [11] (setting [14]); 488 nM in data set [11] (read-out: HBeAg EC50, nM).
For the molecule `C=C1[C@H](CO)[C@@H](O)C[C@@H]1n1cnc2c(=O)[nH]c(N)nc21` [ETV, Entecavir, reference compound], in [8], the CC50 at 11 days is > 1000 nM. Besides, the EC50 in [3] (Hepatitis B virus, HePAD38) was 0.04 nM; in data set [11] (setting [12]), < 1 nM; in [11] (setting [13]), > 1000 nM; in [11] (setting [14]) it was > 1000 nM; in data set [11] (read-out: HBeAg EC50, nM) it was > 1000 nM. In data set [3] (Hepatitis B virus, HePAD38), the EC90 was determined as 12.9 nM.
